This is an account of results in patent US8716287B2, “Pharmaceutical compounds” (Sentinel Oncology Limited, priority 2010, dated 2014).

Data set [1] addresses Chk-1 kinase (Homo sapiens (Human), UniProt O14757). Briefly: Chk-1 kinase inhibiting activity (33P-ATP filter assay, CHKtide substrate). It counts as biochemical. As to the method: The compounds of the invention were tested for activity against Chk-1 kinase using the materials and protocols set out below.
Base Reaction buffer: 20 mM Hepes (pH 7.5), 10 mM MgCl2, 1 mM EGTA, 0.02% Brij35, 0.02 mg/ml BSA, 0.1 mM Na3VO4, 2 mM DTT, 1% DMSO
*Required cofactors are added individually to each kinase reaction
(i) Prepare indicated substrate in freshly prepared Base Reaction Buffer
(ii) Deliver any required cofactors to the substrate solution above
(iii) Deliver indicated kinase into the substrate solution and gently mix
(iv) Deliver compounds in DMSO into the kinase reaction mixture
(v) Deliver ^33P-ATP (specific activity 0.01 μCi/μl final) into the reaction mixture to initiate the reaction.
(vi) Incubate kinase reaction for 120 minutes at room temperature
(vii) Reactions are spotted onto P81 ion exchange paper (Whatman #3698-915)
(viii) Wash filters extensively in 0.1% phosphoric acid.
(ix) Dry filters and measure counts in scintillation counter
Recombinant full length construct, N-terminal GST tagged, purified from insect cells.
No special measures were taken to activate this kinase.
Final concentration in assay=0.5 nM
Peptide sequence: [[…]]
Final concentration in assay=20 μM
No additional cofactors are added to the reaction mixture

In data set [2] the test system is HT29 cells. In words: Sensitisation of HT29 cells to SN38 (Alamar blue cell growth). The following applies: for Cell potentiation factor: SN38 sensitisation assay in HT-29 cells, compound at 3 μM; for fold shift in the IC50 value of SN38: HT29 cells, test compound at 3 μM. Format: cell-based, human. The procedure: Studies were carried out to test the sensitising effect of compounds of the invention on the ability of the DNA damaging compound 7-ethyl-10-hydroxycamptothecin (SN38), an active metabolite of the anti-cancer drug irinotecan, to inhibit cell growth in HT29 cells.
The following protocol was used:
(a) HT29 cells were seeded in 96-well plates at a concentration of 3000 cells per well and allowed to adhere overnight prior to addition of compound or vehicle control.
(b) SN38 was prepared from a 10 mM DMSO stock to give a final concentration range of 1 μM, 300 nM, 100 nM, 30 nM, 10 nM, 3 nM, 1 nM, and vehicle control.
(c) Test compounds were prepared from 10 mM DMSO stocks to typically give a final concentration range of 3 μM, 1 μM, 0.3 μM. 0.1 μM, 0.03 μM and vehicle control. The final DMSO content was 0.4%.
(d) Test compounds were incubated with the cells for 72 h at 37° C. 5% CO2 in a humidified atmosphere.
(e) Alamar blue 10% (v/v) was then added and incubated for a further 6 h, and fluorescent product detected using the BMG FLUOstar plate reader.
(f) Data were analysed using a 4-parameter logistic equation in GraphPad Prism.
Sensitisation is determined by the enhancement in IC50 of SN38 by the addition of the Chk-1 kinase inhibitor. In the protocol described above, the IC50 for SN-38 is determined the presence of varying doses of the Chk-1 inhibitor. The fold shift represents a decrease in IC50 for SN-38 at a dose of Chk-1 inhibitor that has no effect by itself.
Background: Resazurin is reduced to fluorescent resorufin, in cell work by metabolically active cells.

The mark [3] stands for this setting: comparative tests, Example 70, read-out: Chk-1 IC50.
[4] abbreviates: Chk-1 kinase, Table 3, read-out: IC50.
The mark [5] stands for this setting: ranges given, read-out: IC50 values against Chk-1 kinase.

Structures can show the parent of a compound that is named as a salt. Where two headings read alike, the source gives them in different places. Where only a bound is given, the exact number is not on record here.

Chk-1 kinase, sequence (O14757 whole entry): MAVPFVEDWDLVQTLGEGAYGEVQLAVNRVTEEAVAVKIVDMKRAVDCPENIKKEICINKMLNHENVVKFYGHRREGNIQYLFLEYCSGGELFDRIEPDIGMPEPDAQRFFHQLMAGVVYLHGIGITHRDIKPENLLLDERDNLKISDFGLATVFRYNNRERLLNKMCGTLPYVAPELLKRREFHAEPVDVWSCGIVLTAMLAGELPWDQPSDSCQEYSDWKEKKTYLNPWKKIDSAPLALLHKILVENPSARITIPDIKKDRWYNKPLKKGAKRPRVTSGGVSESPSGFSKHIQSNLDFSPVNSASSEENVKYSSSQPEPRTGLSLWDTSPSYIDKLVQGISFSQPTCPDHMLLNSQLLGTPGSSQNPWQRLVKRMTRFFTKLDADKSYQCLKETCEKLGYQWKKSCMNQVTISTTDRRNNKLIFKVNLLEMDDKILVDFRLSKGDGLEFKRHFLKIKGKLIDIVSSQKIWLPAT

A word on the IC50: it is the concentration needed to halve the response being measured. For `COc1cc(CNCc2ccccc2)ccc1NC(=O)Nc1cnc(C)cn1` [Compound 338, reference compound], the IC50 in data set [1] (setting [3]) stood at 99 nM. Besides, the Cell potentiation factor in data set [2] was found to be 5 fold.

Turning to `N#Cc1cnc(NC(=O)Nc2ccc(CCNCc3ccccc3)cc2)cn1` [Example 1, 1-[4-(2-Benzylamino-ethyl)-phenyl]-3-(5-cyano-pyrazin-2-yl)-urea], the IC50 is 200 nM in data set [1] (setting [4]), 99 nM in data set [1] (setting [3]) and 100 to 1000 nM in data set [1] (setting [5]). In addition, the “fold improvement in potency against Chk-1 enzyme” value in data set [1] (relative to Example 30 (alkylene chain 1 to 2 carbon atoms)) is on record as about 3 fold. The “fold shift in the IC50 value of SN38” value in data set [2] was “three”. In addition, the Cell potentiation factor in data set [2] worked out at 4 fold.

For `N#Cc1cnc(NC(=O)Nc2ccc(CCNCc3ccc(F)cc3)cc2)cn1` [Example 2, 1-(5-Cyano-pyrazin-2-yl)-3-{4-[2-(4-fluoro-benzylamino)-ethyl]-phenyl}-urea], the IC50 is 44 nM in data set [1] (setting [4]) and 10 to 100 nM in data set [1] (setting [5]). Also, the “fold shift in the IC50 value of SN38” value in data set [2] was “three”.

In the case of `N#Cc1cnc(NC(=O)Nc2ccc(CCNCc3ccc(F)cc3F)cc2)cn1` [Example 3, 1-(5-Cyano-pyrazin-2-yl)-3-{4-[2-(2,4-difluoro-benzylamino)-ethyl]-phenyl}-urea], the IC50 in data set [1] (setting [4]) is 179 nM; in data set [1] (setting [5]), 100 to 1000 nM. For the same molecule, the “fold shift in the IC50 value of SN38” value in data set [2] is reported as “three”.

As to `N#Cc1cnc(NC(=O)Nc2ccc(CCNCc3ccc(F)cc3F)c(Cl)c2)cn1` [Example 5, 1-{3-Chloro-4-[2-(2,4-difluoro-benzylamino)-ethyl]-phenyl}-3-(5-cyano-pyrazin-2-yl)-urea], the figures for the IC50 in data set [1] (setting [4]) and in data set [1] (setting [5]) were 38 nM and 10 to 100 nM, respectively. Moreover, the “fold shift in the IC50 value of SN38” value in data set [2] is on record as “three”.

For `N#Cc1cnc(NC(=O)Nc2ccc(OCCNCc3ccc(F)cc3F)c(Cl)c2)cn1` [Example 6, 1-{3-Chloro-4-[2-(2,4-difluoro-benzylamino)-ethoxy]-phenyl}-3-(5-cyano-pyrazin-2-yl)-urea], the values for the IC50 in data set [1] (setting [4]) and in data set [1] (setting [5]) were 26 nM and 10 to 100 nM, respectively. In addition, the “fold shift in the IC50 value of SN38” value in data set [2] is listed as “three”.

Regarding `C[C@@H](NCCc1ccc(NC(=O)Nc2cnc(C#N)cn2)cc1Cl)c1ccc(F)cc1` [Example 24, 1-(3-Chloro-4-{2-[(R)-1-(4-fluoro-phenyl)-ethylamino]-ethyl}-phenyl)-3-(5-cyano-pyrazin-2-yl)-urea hydrochloride], the IC50 in data set [1] (setting [4]) was 13 nM; in data set [1] (setting [5]) it was 10 to 100 nM.

In the case of `N#Cc1cnc(NC(=O)Nc2ccc(CCNCCc3ccc(F)cc3F)c(Cl)c2)cn1` [Example 28, 1-(3-Chloro-4-{2-[2-(2,4-difluoro-phenyl)-ethylamino]-ethyl}-phenyl)-3-(5-cyano-pyrazin-2-yl)-urea], the IC50 in data set [1] (setting [4]) is 47 nM; in data set [1] (setting [5]), 10 to 100 nM.

As for `COc1cc(CCNCc2ccc(F)cc2F)ccc1NC(=O)Nc1cnc(C#N)cn1` [Example 30, 1-(5-Cyano-pyrazin-2-yl)-3-{4-[2-(2,4-difluoro-benzylamino)-ethyl]-2-methoxy-phenyl}-urea], the IC50 was 6.4 nM in data set [1] (setting [4]) and under 10 nM in data set [1] (setting [5]).

As to `COc1cc(CCNCc2ccccc2)ccc1NC(=O)Nc1cnc(C)cn1` [Example 32, 1-[4-(2-Benzylamino-ethyl)-2-methoxy-phenyl]-3-(5-methyl-pyrazin-2-yl)-urea hydrochloride], the IC50 in data set [1] (setting [4]) and in data set [1] (setting [3]) was 27 nM throughout. The “fold improvement in potency against Chk-1” value in data set [1] (relative to Compound 338 of WO02/070494 (alkylene chain 1 to 2 carbon atoms)) is recorded as about 3 fold.

In the case of `Cc1cc(NC(=O)Nc2cnc(C#N)cn2)ccc1CCNCc1ccc(F)cc1` [Example 36, 1-(5-Cyano-pyrazin-2-yl)-3-{4-[2-(4-fluoro-benzylamino)-ethyl]-3-methyl-phenyl}-urea hydrochloride], in data set [1] (setting [4]), the IC50 stood at 10 nM.

Take `COc1cc(CCN[C@H](C)c2ccc(F)cc2)ccc1NC(=O)Nc1cnc(C#N)cn1` [Example 43, 1-(5-Cyano-pyrazin-2-yl)-3-(4-{2-[(R)-1-(4-fluoro-phenyl)-ethylamino]-ethyl}-2-methoxy-phenyl)-urea]: the IC50 in data set [1] (setting [4]) is 3.3 nM; in data set [1] (setting [5]), under 10 nM.

Take `CCOc1cc(CCNCc2ccc(F)cc2)c(Cl)cc1NC(=O)Nc1cnc(C#N)cn1` [Example 45, 1-{5-Chloro-2-ethoxy-4-[2-(4-fluoro-benzylamino)-ethyl]-phenyl}-3-(5-cyano-pyrazin-2-yl)-urea hydrochloride]: the concentration for half-maximal inhibition (IC50) in data set [1] (setting [4]) was 1.2 nM; in data set [1] (setting [5]) it was under 10 nM.

As for `CC(C)Oc1cc(CCNCc2ccc(F)cc2)c(Cl)cc1NC(=O)Nc1cnc(C#N)cn1` [Example 46, 1-{5-Chloro-4-[2-(4-fluoro-benzylamino)-ethyl]-2-isopropoxy-phenyl}-3-(5-cyano-pyrazin-2-yl)-urea hydrochloride], the IC50 in data set [1] (setting [4]) was 0.32 nM; in data set [1] (setting [5]) it was under 10 nM.

For `COc1cc(OCCNCc2ccc(F)cc2)c(Cl)cc1NC(=O)Nc1cnc(C#N)cn1` [Example 47, 1-{5-Chloro-4-[2-(4-fluoro-benzylamino)-ethoxy]-2-methoxy-phenyl}-3-(5-cyano-pyrazin-2-yl)-urea hydrochloride], the half-maximal inhibitory concentration (IC50) in data set [1] (setting [4]) was 8.4 nM; in data set [1] (setting [5]) it was under 10 nM.

Take `COc1cc(CCN[C@@H](C)c2ccc(N3CCNCC3)cc2)c(Cl)cc1NC(=O)Nc1cnc(C#N)cn1` [Example 52, 1-(5-Chloro-2-methoxy-4-{2-[(S)-1-(4-piperazin-1-yl-phenyl)-ethylamino]-ethyl}-phenyl)-3-(5-cyano-pyrazin-2-yl)-urea hydrochloride]: the IC50 in data set [1] (setting [4]) is 0.13 nM; in data set [1] (setting [5]), under 10 nM.

As to `COc1cc(CNCc2ccccc2)c(Cl)cc1NC(=O)Nc1cnc(C#N)cn1` [Example 56, 1-[4-(Benzylamino-methyl)-5-chloro-2-methoxy-phenyl]-3-(5-cyano-pyrazin-2-yl)-urea hydrochloride], the half-maximal inhibitory concentration (IC50) in data set [1] (setting [4]) was 2.8 nM; in data set [1] (setting [5]), under 10 nM.

For the molecule `COc1cc(CNCc2cccc(F)c2)ccc1NC(=O)Nc1cnc(C#N)cn1` [Example 58, 1-(5-Cyano-pyrazin-2-yl)-3-{4-[(3-fluoro-benzylamino)-methyl]-2-methoxy-phenyl}-urea hydrochloride], the concentration for half-maximal inhibition (IC50) in data set [1] (setting [4]) came out at 21 nM.

For the molecule `COc1cc(CNCc2ccccc2F)ccc1NC(=O)Nc1cnc(C#N)cn1` [Example 59, 1-(5-Cyano-pyrazin-2-yl)-3-{4-[(2-fluoro-benzylamino)-methyl]-2-methoxy-phenyl}-urea hydrochloride], in data set [1] (setting [4]), the IC50 was 13 nM.

Consider `COc1cccc(CNCc2ccc(NC(=O)Nc3cnc(C#N)cn3)c(OC)c2)c1` [Example 61, 1-(5-Cyano-pyrazin-2-yl)-3-{2-methoxy-4-[(3-methoxy-benzylamino)-methyl]-phenyl}-urea hydrochloride], for which the IC50 was 7.5 nM in data set [1] (setting [4]) and under 10 nM in data set [1] (setting [5]).

Turning to `COc1ccccc1CNCc1ccc(NC(=O)Nc2cnc(C#N)cn2)c(OC)c1` [Example 62, 1-(5-Cyano-pyrazin-2-yl)-3-{2-methoxy-4-[(2-methoxy-benzylamino)-methyl]-phenyl}-urea], the values for the IC50 in data set [1] (setting [4]) and in data set [1] (setting [5]) were 7.8 nM and under 10 nM, respectively.

In the case of `COc1cc(CNCc2ccc(F)cc2)c(Cl)cc1NC(=O)Nc1cnc(C#N)cn1` [Example 63, 1-{5-Chloro-4-[(4-fluoro-benzylamino)-methyl]-2-methoxy-phenyl}-3-(5-cyano-pyrazin-2-yl)-urea hydrochloride], the figures for the IC50 in data set [1] (setting [4]) and in data set [1] (setting [5]) were 9.8 nM and under 10 nM, respectively.

As for `COc1cc(CCNCc2ccc(N3CCNCC3)cc2)c(Cl)cc1NC(=O)Nc1cnc(C#N)cn1` [Example 64, 1-{5-Chloro-2-methoxy-4-[2-(4-piperazin-1-yl-benzylamino)-ethyl]-phenyl}-3-(5-cyano-pyrazin-2-yl)-urea hydrochloride], the IC50 in data set [1] (setting [4]) is 0.03 nM; in data set [1] (setting [5]), under 10 nM.

`COc1cccc([C@H](C)NCCc2cc(OC)c(NC(=O)Nc3cnc(C#N)cn3)cc2Cl)c1` [Example 65, 1-(5-Chloro-2-methoxy-4-{2-[(S)-1-(3-methoxy-phenyl)-ethylamino]-ethyl}-phenyl)-3-(5-cyano-pyrazin-2-yl)-urea hydrochloride]: the half-maximal inhibitory concentration (IC50) in data set [1] (setting [4]) is 0.73 nM; in data set [1] (setting [5]), under 10 nM.
